We go through four compounds from ChEMBL document CHEMBL4257487, “Structure-guided design of a potent peptide inhibitor targeting the interaction between CRK and ABL kinase” (Medchemcomm, 2018).

Assay [1] addresses T1, Adapter molecule crk (Homo sapiens, UniProt P46108). As to the kind of experiment: Binding affinity to human c-CRK N-terminal SH3 domain expressed in Escherichia coli BL21 (DE3) by tryptophan fluorescence quenching assay.
Assay [2] addresses T1, Adapter molecule crk. Put plainly: Binding affinity to recombinant human CRK-2 nSH3 domain (1 to 304 residues) expressed in Escherichia coli by NMR analysis.
The target of assay [3] is T1, Adapter molecule crk. Put plainly: Binding affinity to recombinant human CRK-2 nSH3 domain (1 to 304 residues) expressed in Escherichia coli by tryptophan fluorescence quenching assay.
In assay [4] the target is T1, Adapter molecule crk. As to the kind of experiment: Binding affinity to recombinant human CRK-2 nSH3 domain (1 to 304 residues) expressed in Escherichia coli assessed as inhibition of interaction with Abl by measuring Abl-mediated CRK-2 phosphorylation at Y221 residue at 1 uM after 10 to 30 mins by PAGE analysis (reference value: 62%). Also on record: scale not given: the % may be the effect or the level left.

Assay [5] addresses T1, Adapter molecule crk. As to the kind of experiment: Binding affinity to recombinant human CRK-2 nSH3 domain (1 to 304 residues) expressed in Escherichia coli assessed as inhibition of Abl T315I mutant-mediated CRK-2 phosphorylation at Y221 residue at 1 uM after 10 to 30 mins by PAGE analysis.
For assay [6], the target named is T1, Adapter molecule crk. As to the kind of experiment: Binding affinity to recombinant human CRK-2 nSH3 domain (1 to 304 residues) expressed in Escherichia coli at 25 degC by tryptophan fluorescence quenching assay.
Assay [7] concerns the target T1, Adapter molecule crk. As to the kind of experiment: Ratio of Kd for recombinant human CRK-2 nSH3 domain (1 to 304 residues) expressed in Escherichia coli at 35 degC in presence of 1 M NaCl to Kd for recombinant human CRK-2 nSH3 domain (1 to 304 residues) expressed in Escherichia coli at 35 degC in presence of 80 mM NaCl.

Structures are written as SMILES. Active and inactive are the calls of the source. The rule behind the calls is not given here. Where a SMILES comes first, the peptide text is derived from it.

T1 sequence (P46108 whole entry, the tested form may be a part): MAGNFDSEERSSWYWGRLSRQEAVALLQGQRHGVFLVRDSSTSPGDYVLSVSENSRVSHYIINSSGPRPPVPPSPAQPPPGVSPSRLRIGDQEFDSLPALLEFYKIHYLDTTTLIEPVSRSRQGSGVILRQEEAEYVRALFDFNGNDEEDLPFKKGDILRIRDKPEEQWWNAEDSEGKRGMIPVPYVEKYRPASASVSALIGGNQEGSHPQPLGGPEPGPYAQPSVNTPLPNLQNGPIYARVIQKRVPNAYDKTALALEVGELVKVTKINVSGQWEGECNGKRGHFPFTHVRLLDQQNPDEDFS

`CC(C)C[C@H](NC(=O)[C@H](C)NC(=O)[C@@H]1CCCN1C(=O)[C@@H]1CCCN1C(=O)[C@@H]1CCCN1)C(=O)N1CCC[C@H]1C(=O)N1CCC[C@H]1C(=O)N[C@@H](CCCCN)C(=O)N[C@@H](CCCCN)C(=O)N[C@@H](CCCNC(=N)N)C(=O)O`: the Kd on Adapter molecule crk [1] came out at 1900 nM. The result at Adapter molecule crk [2] was Active.

With `CC(C)C[C@H](NC(=O)[C@H](C)NC(=O)[C@@H]1CCCN1C(=O)[C@@H]1CCCN1C(=O)[C@@H]1CCCN1C(=O)[C@H](CO)NC(=O)[C@H](CC(N)=O)NC(=O)[C@@H](N)CC(=O)O)C(=O)N1CCC[C@H]1C(=O)N[C@@H](CCCCN)C(=O)N[C@@H](CCCCN)C(=O)N[C@@H](CCCNC(=N)N)C(=O)N[C@@H](CCC(N)=O)C(=O)N[C@@H](CO)C(=O)N[C@@H](Cc1ccc(O)cc1)C(=O)O` (H-DNSPPPALPKKRQSY-OH), on Adapter molecule crk [3], the Kd was 400 nM. For the same compound, the outcome on Adapter molecule crk [2] was Active.

Regarding `Cc1ccc(NC(=O)c2ccc(CN3CCN(C)CC3)cc2)cc1Nc1nccc(-c2cccnc2)n1`, the Activity on Adapter molecule crk [4] was 33%. Moreover, the inhibition result at Adapter molecule crk [5] is “inactive”.

Take `CC(C)C[C@H](NC(=O)[C@H](C)NC(=O)[C@@H]1CCCN1C(=O)[C@@H]1CCCN1C(=O)[C@@H](N)CO)C(=O)N1CCC[C@H]1C(=O)N[C@@H](CCCCN)C(=O)N[C@@H](CCCCN)C(=O)N[C@@H](CCCNC(=N)N)C(=O)N[C@@H](CCC(N)=O)C(=O)N[C@@H](CO)C(=O)N[C@@H](Cc1ccc(O)cc1)C(=O)N[C@@H](CCCNC(=N)N)C(=O)N[C@@H](CCCNC(=N)N)C(=O)O` (H-SPPALPKKRQSYRR-OH): the Kd at Adapter molecule crk [6] and on Adapter molecule crk [3] was 9 nM in each case. The outcome on Adapter molecule crk [2] was Active. Further, on Adapter molecule crk [7], the Ratio was determined as 50. The Activity at Adapter molecule crk [4] turned out to be 21%. Moreover, on Adapter molecule crk [5], the inhibition entry was “Active”.

What is called Kd is the free concentration of one partner at which half of the binding sites on the other are occupied at equilibrium, for simple one-to-one binding.
